Calls of active or inactive are those of the source. No cut-off for these calls is given here.

This note sets out measurements from ChEMBL document CHEMBL4342523, “Discovery and Development of S6821 and S7958 as Potent TAS2R8 Antagonists” (J Med Chem, 2020).

Data set [1] is described as follows: Stability of the compound in pH 6 buffer assessed as parent compound remaining measured after 60 mins at 124 degC. The format is physicochemical. The conditions noted are these: read-out: Stability.
A short description of data set [2]: Stability of the compound in pH 2.8 buffer assessed as parent compound remaining measured after 24 hrs at room temperature. The format is physicochemical. The settings on record: read-out: Stability.
The target in data set [3] is T1, Taste receptor type 2 member 8 (Homo sapiens) (UniProt Q9NYW2).
T1 sequence (whole entry): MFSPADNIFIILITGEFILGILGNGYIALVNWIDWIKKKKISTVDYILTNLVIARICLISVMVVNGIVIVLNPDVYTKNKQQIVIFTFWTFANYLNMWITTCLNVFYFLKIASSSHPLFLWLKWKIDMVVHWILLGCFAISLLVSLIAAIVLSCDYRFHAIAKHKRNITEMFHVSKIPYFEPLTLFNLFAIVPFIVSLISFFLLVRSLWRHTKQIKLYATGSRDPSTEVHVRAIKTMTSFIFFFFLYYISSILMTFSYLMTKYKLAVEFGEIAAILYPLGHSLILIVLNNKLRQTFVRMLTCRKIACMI
Description: Competitive antagonist activity at recombinant human TAS2R8 assessed as inhibition of chloramphenicol-induced intracellular calcium level at 3 to 3000 nM preincubated for 60 secs followed by varying levels of chloramphenicol addition using Fura-2AM dye by cell-based fluorescent microscopic analysis. Background: Calcium flux is commonly read through the fluorescence of an indicator in the cells.

Turning to `Cc1noc(C)c1Cn1cc(N2C(=O)CN(Cc3cccc(O)c3)C2=O)cn1`, the remaining at 1 h in data set [1] was greater than 99%. The remaining at 24 h in data set [2] is greater than 99%. For the same compound, the inhibition result in data set [3] was “Active”.
